Patent publication US4689346A, “Therapeutic 1-(acylamino)-naphthalene-4-sulphonic acid derivatives” (Laboratorio Fides, S.A., priority 1982, dated 1987)
Like-named read-outs stand apart in the source and are kept apart here.

Legend:
[1] = test system: mean bleeding (clotting) time measured in a rabbit ear; experiment: Hemostatic activity: mean bleeding (clotting) time in a rabbit ear, technique of Roskam and Pauwen; type: in vivo; conditions: i.v.
Method: The hemostatic activity is determined by means of a quantitative study of the mean bleeding (clotting) time measured in a rabbit ear by the technique described by Roskam and Pauwen.
Ethamsylate was used as a standard, and the results obtained were as follows: […]

[2] = test system: vascular permeability produced by histamine; experiment: Capillary permeability, Lefebre's method (vascular permeability produced by histamine in rats); type: in vivo; conditions: 0.100 g/kg, subcutaneous
Method: The effect on the capillary permeability is determined by means of Lefebre's method, which is based on measuring, at the time of appearance of a coloration, the vascular permeability produced by histamine in rats that have been injected with the product under investigation. Ethamsylate is used as a standard, and the results obtained are as follows: […]

capillary resistance = experiment: Capillary resistance, modified technique based on that of Lavollay (time to first central petechiae under vacuum, scorbutic diet); type: in vivo; conditions: 0.175 g/kg, oral, guinea-pigs, four weeks
Method: The effect on the capillary resistance is determined by means of a modified technique based on that of Lavollay. An increasingly powerful vacuum is applied to the skin, and the time that elapses before the first central petechiae appear is taken as a measure of the capillary resistance. Three batches of guinea-pigs are used for each product tested, one batch being a normal batch and the two other batches being subjected to a scorbutic diet, one of the latter batches having received the product under investigation from the start of the trial. An initial basal reading and other weekly readings are taken for four weeks. Ethamsylate is used as a standard.

fibrin plates = experiment: Antifibrinolytic activity in vitro by means of fibrin plates, modified and standardized method of Astrup and Mullertz; type: biochemical; conditions: AMCHA as standard (= 1)
Method: The antifibrinolytic activity is evaluated "in vitro" by means of fibrin plates according to the modified and standardized method of Astrup and Mullertz.
The antifibrinolytic activity of the test solution is calculated by interpolating the lysis response in a dose/response curve obtained with reference solutions (graduated dilutions of a standard enzyme). AMCHA was used as a standard antifibrinolytic compound.

mice = experiment: Acute toxicity, LD50 in mice; type: in vivo; conditions: for Acute toxicity, LD50, I.v. route: i.v. (endovenous)
Method: (§1) The LD50 in mice is determined for the endovenous, intraperitoneal and oral routes.

[3] = Acute toxicity, LD50 in mice; type: in vivo; conditions: mouse, in vivo
Method: as §1

Compound: NC[C@H]1CC[C@H](C(=O)O)CC1 [AMCHA, trans-4-(aminomethyl)-cyclohexanecarboxylic acid, reference compound]
- Hemostatic activity, % Effect ([1]; 10 mg/kg): 22.5%
- Hemostatic activity, % Effect ([1]; 100 mg/kg): 26.5%
- Capillary permeability, % Effect [2]: -2%
- Capillary resistance, % Effect (capillary resistance): 20.08%
- Antifibrinolytic activity, Weight capacity (fibrin plates): 1

Compound: CC(=O)Nc1c(OC(C)=O)cc(S(=O)(=O)O)c2ccccc12 [Example 5, sodium N,O-diacetyl-1-amino-2-naphthol-4-sulphonate]
- Hemostatic activity, % Effect ([1]; 25 mg/kg): 10.6%
- Capillary resistance, % Effect (capillary resistance): 26%
- Antifibrinolytic activity, Relative capacity (fibrin plates): 1.19
- Antifibrinolytic activity, Weight capacity (fibrin plates): 0.55

Compound: CC(=O)Oc1cc(S(=O)(=O)O)c2ccccc2c1N(C(C)=O)C(C)=O [Example 2, morpholine N,N,O-triacetyl-1-amino-2-naphthol-4-sulphonate]
- Hemostatic activity, % Effect ([1]; 10 mg/kg): 24.7%
- Hemostatic activity, % Effect ([1]; 100 mg/kg): 13%
- Capillary permeability, % Effect [2]: 29%
- Capillary resistance, % Effect (capillary resistance): 23.95%
- Acute toxicity, LD50, I.p. route (mice): 4040 mg/kg
- Acute toxicity, LD50, I.v. route (mice): 1530 mg/kg
- Acute toxicity, LD50, Oral route (mice): > 7000 mg/kg
- Antifibrinolytic activity, Relative capacity (fibrin plates): 1.67
- Antifibrinolytic activity, Weight capacity (fibrin plates): 0.59

Compound: O=S(=O)(O)c1cc(O)ccc1O [Ethamsylate, reference compound]
- Hemostatic activity, % Effect ([1]; 10 mg/kg): 22.11%
- Capillary permeability, % Effect [2]: 26.33%
- Capillary resistance, % Effect (capillary resistance): 14.18%
- LD50 ([3]; iv, i.v. (endovenous), read-out: Acute toxicity, LD50, I.v. route): 800 mg/kg
- Antifibrinolytic activity, Relative capacity (fibrin plates): 0.47
- Antifibrinolytic activity, Weight capacity (fibrin plates): 0.28

Compound: CC(=O)Oc1cc(S(=O)(=O)O)c2ccccc2c1N(C(C)=O)C(C)=O [Example 1, potassium N,N,O-triacetyl-1-amino-2-naphthol-4-sulphonate]
- Hemostatic activity, % Effect ([1]; 10 mg/kg): 18.2%
- Hemostatic activity, % Effect ([1]; 100 mg/kg): 23%
- Capillary permeability, % Effect [2]: 19%
- Capillary resistance, % Effect (capillary resistance): 23.6%
- Acute toxicity, LD50, I.v. route (mice): 653 mg/kg
- LD50 ([3]; ip, read-out: Acute toxicity, LD50, I.p. route): 3560 mg/kg
- LD50 ([3]; po, read-out: Acute toxicity, LD50, Oral route): > 7000 mg/kg
- Antifibrinolytic activity, Relative capacity (fibrin plates): 2.06
- Antifibrinolytic activity, Weight capacity (fibrin plates): 0.91

Compound: CC(=O)Oc1cc(S(=O)(=O)O)c2ccccc2c1N(C(C)=O)C(C)=O [Example 4, sodium N,N,O-triacetyl-1-amino-2-naphthol-4-sulphonate]
- Hemostatic activity, % Effect ([1]; 10 mg/kg): 29.7%
- Hemostatic activity, % Effect ([1]; 100 mg/kg): 29.8%
- Capillary resistance, % Effect (capillary resistance): 17.9%
- Acute toxicity, LD50, I.p. route (mice): 5260 mg/kg
- Acute toxicity, LD50, I.v. route (mice): 3510 mg/kg
- Acute toxicity, LD50, Oral route (mice): > 7000 mg/kg
- Antifibrinolytic activity, Relative capacity (fibrin plates): 2.61
- Antifibrinolytic activity, Weight capacity (fibrin plates): 1.21

Compound: CC(=O)Oc1cc(S(=O)(=O)O)c2ccccc2c1N(C(C)=O)C(C)=O [Example 11, AMCHA N,N,O-triacetyl-1-amino-2-naphthol-4-sulphonate]
- Hemostatic activity, % Effect ([1]; 10 mg/kg): 20%
- Hemostatic activity, % Effect ([1]; 100 mg/kg): 32%
- Capillary permeability, % Effect [2]: 14%
- Capillary resistance, % Effect (capillary resistance): 22.6%
- Antifibrinolytic activity, Relative capacity (fibrin plates): 3.36
- Antifibrinolytic activity, Weight capacity (fibrin plates): 1.19
